From EP4461293B1, “BIOTIN RECEPTOR-BINDING […] COMPOUNDS” (Biomedical Research Foundation Academy of Athens, priority 2023, dated 2024)
Several values for one entry are separate records, joined by “and”; a condition that tells them apart may be missing. Identical values can stand only once. Like-named read-outs stand apart in the source and are kept apart here.

Legend:
[1] = system: MCF-7; assay: MTT viability assay, MCF-7; assay type: cell-based, human
[2] = system: HCT-116; assay: MTT viability assay, HCT-116; assay type: cell-based; conditions: 72h, human colon cancer cells, biotin receptor-negative (Table 3a)
[3] = system: SkBr3 human breast cancer cells; assay: MTT viability assay, SkBr3; assay type: cell-based; conditions: 72h (Table 3b)
[4] = system: MDA-MB-231; assay: MTT viability assay, MDA-MB-231; assay type: cell-based, human; conditions: 72h (Table 3b)
[5] = system: SkBr3; assay: Platinum cell uptake by mass cytometry (CyTOF), SkBr3; assay type: cell-based; conditions: for cellular uptake (CyTOF Pt195 signal): 50 µM, 60 min, in comparison to 50 µM carboplatin (Figure 3)
Protocol: (§1) Cell cultures: Cancer cell lines, SkBr3, MDA-MB-231, MCF-7 and A549, which overexpress biotin receptors on their surface membranes, were each independently cultured in Dulbecco's Modified Eagle Medium (DMEM), supplemented with 10% fetal bovine serum (FBS), penicillin (100 µ/mL) and streptomycin (100 µg/mL) at 37 °C and 5% CO2.
(§2) For MCF-7, MDA-MB-231 and SkBr3 cell lines, an additional step was performed by preincubating for 15 min with 10-100 µM biotin. The quantification was performed by means of mass cytometry. Cell singlet discrimination - staining protocol B of the mass cytometer supplier (Fluidigm) was followed.
Medium was removed from cultures and cells were pelleted at 1500 rpm. Resuspension of cells was performed in an appropriate volume of RPMI 1640 or DMEM medium to obtain a density of about 1.5-3 x 10^6 cells per mL. Cells were fractionated and treated with different concentrations of each drug or maintained as is (control). […] Suspensions were incubated for 60 min at 37 °C and 5% CO2. Suspensions used to evaluate the effect of biotin in platinum cellular uptake, were preincubated with 100 µM biotin for 15 min before the treatment with each drug. After incubation, cells were stained using Maxpar cell staining buffer (MCSB) and then fixed using 1.6% paraformaldehyde in PBS for 10 min at room temperature. Incubation with intercalator 103Rh diluted in Maxpar fix-perm buffer was performed overnight at 4 °C. Cells were washed twice with MCSB, samples were pelleted and resuspended in cell acquisition solution (CAS). A small volume of suspensions was maintained to quantify cells using Trypan blue staining. As last step, each sample was diluted with CAS and calibration beads that include metal isotopes.

[6] = system: human mesenchymal stem cells (WJ-MSCs); assay: MTT viability assay, toxicity to normal cells; assay type: cell-based; conditions: 48 h growth in presence of drug, MTT assay (Figure 1)
Source text: Thus, human mesenchymal stem cells were extracted from Wharton's jelly (matrix) of the human fetal umbilical cord, also known as Wharton's Jelly Mesenchymal Stem cells (WJ-MSCs), from full-term pregnancies, as described in Christodoulou et al. [2022] and Goulielmaki et al. [2019].
WJ-MSCs up to seventh passage were used for this in vitro assay (b22 population doublings). The mean population doubling time (PDT) was 32+/- hours and cells maintained a consistent MSC immunophenotypic profile. […]
Cell viability of (WJ-MSCs) was determined colorimetrically in a 96-well plate assay, using the tetrazolium compound MTS (3-[4,5,dimethylthiazol-2-yl]-5-[3-carboxymethoxy-phenyl]-2-[4-sulfophenyl]-2H-tetrazolium, inner salt), which is bioreduced by cells into a colored formazan product that is soluble in tissue culture medium. […]
At a concentration of 3.5x10^2 cells/200 µL culture medium/well (37 °C, 5% CO2), WJ-MSCs were plated into 96-well microtiter plates. […] At the end, the absorbance was measured at 490nm (with 650nm as a reference wavelength) in a microplate reader (monochromator) [Monochro-mator Microplate Reader safire2 TECAN AUSTRIA GMBH/Measurement parameter Editor Magellan (version 6)].

[7] = Pharmacokinetic study in mice, plasma by LC-MS/MS; assay type: in vivo, female C57BL/6 mice; conditions: ip
Protocol: Samples (plasma) were collected after 15, 30, 60 and 120 min of drug administration.
All samples were analyzed by an LC-MS/MS bioanalytical methodology.

[8] = system: MDA-MB-231; assay: Platinum cell uptake by mass cytometry (CyTOF), MDA-MB-231; assay type: cell-based; conditions: 50 µM, 60 min, in comparison to carboplatin (Figure 2)
Protocol: as §1, §2
(§3) Medium was removed from cultures and cells were pelleted at 1500 rpm. Resuspension of cells was performed in an appropriate volume of RPMI 1640 or DMEM medium to obtain a density of about 1.5-3 x 10^6 cells per mL. Cells were fractionated and treated with different concentrations of each drug or maintained as is (control). […] Suspensions were incubated for 60 min at 37 °C and 5% CO2. Suspensions used to evaluate the effect of biotin in platinum cellular uptake, were preincubated with 100 µM biotin for 15 min before the treatment with each drug. […] A small volume of suspensions was maintained to quantify cells using Trypan blue staining. […]

[9] = system: A549; assay: Platinum cell uptake by mass cytometry (CyTOF), A549; assay type: cell-based; conditions: 50 µM, 60 min, in comparison to carboplatin (Figure 2)
Protocol: as §1, §2, §3

[10] = Solubility; conditions: DMF
[11] = 72h, with addition of 10 µM D-(+)-Biotin (Table 2b), read-out: MCF-7 and biotin IC50
[12] = 72h, without biotin (Table 2b), read-out: MCF-7 IC50

SMILES	IC50 [1, 11]	IC50 [1, 12]	IC50 [2]	cellular uptake (CyTOF Pt195 signal) [5]	concentration at which less than 50% viability is reached [6]	further results
N.N.[Cl][Pt][Cl] [Cisplatin, reference compound]	12 µM	9 µM	7 µM and 8 µM	–	–	–
CC(N)C(N)CCCCCC(=O)O.O=C1[O][Pt][O]C1=O [PMX118, (7R,8S)-7,8-diaminononanoic acid oxalatoplatinum(ll)]	290 µM	133 µM	225 µM and > 250 µM	significantly greater	–	IC50 [3]: 225 µM and > 250 µM; IC50 ([1]; 72h (Table 3b), read-out: MCF-7 IC50): 100 µM; IC50 [4]: 116 µM and 144 µM
[NH3+][Pt-2]1([NH3+])[O]C(=O)C2(CCC2)C(=O)[O]1 [Carboplatin]	–	–	–	–	100 µM	Cmax ([7]; mouse, 60 mg/kg): 131 ± 50 µM; AUC at 2 h ([7]; mouse, 60 mg/kg, read-out: Areas under the curve (AUCs) (converted)): 69.4 µM·h
C[C@@H]1[NH2+][Pt-2]([Cl])([Cl])[NH2+][C@@H]1CCCCCC(=O)O [PMX114, (7R,8S)-7,8-diaminononanoic acid dichloroplatinum(II)]	–	–	–	significantly greater	> 300 µM	platinum uptake (CyTOF Pt195 signal) [8]: significantly greater; platinum uptake (CyTOF Pt195 signal) [9]: significantly greater; effect of biotin preincubation on platinum entry ([5]; preincubation with 100 µM of biotin for 15 min, then 50 µM drug): inhibition of platinum entry; AUC ([7]; female, C57BL/6, mouse, 75 mg/kg, read-out: Areas under the curve (AUCs) (converted)): 42.1 µM·h; Solubility [10]: good
